Results published in BindingDB's records for doi:10.1016/j.bmcl.2011.12.067 (Dalian University of Technology, 2012).

Target: Epidermal growth factor receptor (Homo sapiens, UniProt P00533)
Assay: Inhibition of wild-type EGFR expressed using baculovirus expression system by ELISA

Sequence of Epidermal growth factor receptor (P00533 whole entry): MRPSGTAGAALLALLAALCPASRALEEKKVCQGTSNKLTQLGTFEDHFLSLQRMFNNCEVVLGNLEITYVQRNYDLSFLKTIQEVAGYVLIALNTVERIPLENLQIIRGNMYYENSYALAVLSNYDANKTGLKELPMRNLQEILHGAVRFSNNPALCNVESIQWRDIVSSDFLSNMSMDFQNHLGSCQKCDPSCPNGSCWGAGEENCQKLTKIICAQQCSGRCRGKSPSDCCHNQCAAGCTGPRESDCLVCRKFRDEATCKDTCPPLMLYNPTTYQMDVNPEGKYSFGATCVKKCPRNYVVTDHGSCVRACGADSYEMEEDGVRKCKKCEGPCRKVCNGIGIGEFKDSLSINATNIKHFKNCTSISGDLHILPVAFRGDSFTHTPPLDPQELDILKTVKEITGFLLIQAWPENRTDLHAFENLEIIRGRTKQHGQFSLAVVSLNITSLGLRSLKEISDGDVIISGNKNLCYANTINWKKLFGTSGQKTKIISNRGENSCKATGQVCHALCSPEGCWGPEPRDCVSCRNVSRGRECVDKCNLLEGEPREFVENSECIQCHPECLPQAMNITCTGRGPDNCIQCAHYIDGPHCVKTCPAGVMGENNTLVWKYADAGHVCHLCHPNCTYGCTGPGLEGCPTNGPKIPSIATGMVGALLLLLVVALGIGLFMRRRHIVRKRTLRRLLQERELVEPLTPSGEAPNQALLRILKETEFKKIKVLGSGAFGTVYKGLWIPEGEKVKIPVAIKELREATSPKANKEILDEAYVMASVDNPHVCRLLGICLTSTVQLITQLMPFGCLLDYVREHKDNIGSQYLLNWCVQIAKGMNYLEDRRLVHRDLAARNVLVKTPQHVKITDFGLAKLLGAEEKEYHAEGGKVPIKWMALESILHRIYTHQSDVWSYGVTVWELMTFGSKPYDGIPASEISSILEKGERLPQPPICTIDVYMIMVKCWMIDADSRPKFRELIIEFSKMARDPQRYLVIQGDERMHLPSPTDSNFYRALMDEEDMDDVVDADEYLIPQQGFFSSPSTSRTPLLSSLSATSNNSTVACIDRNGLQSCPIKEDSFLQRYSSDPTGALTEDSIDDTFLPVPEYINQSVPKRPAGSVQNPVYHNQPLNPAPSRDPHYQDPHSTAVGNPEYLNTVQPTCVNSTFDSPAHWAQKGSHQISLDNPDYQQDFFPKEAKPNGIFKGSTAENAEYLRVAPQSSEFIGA

SMILES	IC50 [µM]
CNc1nc(N=NCc2ccc(O)cc2)nc(Nc2ccccc2)n1	> 100
Cn1cc(NC(=O)CN=O)c(=O)n1-c1ccccc1	> 100
CNc1nc(N=NCc2ccc(OC)cc2)nc(Nc2ccccc2)n1	> 100
